Read-outs that look alike come from different tables or passages of the source. Each block holds one compound with its values, some of them ahead of it.
Tests used:
hCB2 [1] = molecular target: T1, hCB2 (Homo sapiens, UniProt P34972); assay: […]GTPγS binding, CHO-hCB2 membranes; assay type: biochemical
T1 construct: gene CNR2; full-length receptor in CHO-K1 cells, membranes or intact cells; PathHunter CHO-K1-HOMSA-CNR2 for beta-arrestin

hCB2 [2] = molecular target: T1, hCB2; assay: forskolin-induced cAMP, GloSensor, CHO-hCB2 cells; assay type: cell-based; conditions: read-out: CHO cells / h CB2 cAMP
Description: forskolin-induced cAMP, GloSensor, CHO-hCB2 cells on hCB2

hCB2 [3] = molecular target: T1, hCB2; assay: [3H]CP55, […] displacement, CHO membranes; assay type: binding
hCOX-2 = molecular target: T2, hCOX-2 (Homo sapiens, UniProt P35354); assay: fluorescent COX inhibitor assay (ADHP), recombinant hCOX-2; assay type: biochemical; conditions: read-out: h COX-2 / AA
T2 construct: gene PTGS2
T2 sequence (P35354 18-604): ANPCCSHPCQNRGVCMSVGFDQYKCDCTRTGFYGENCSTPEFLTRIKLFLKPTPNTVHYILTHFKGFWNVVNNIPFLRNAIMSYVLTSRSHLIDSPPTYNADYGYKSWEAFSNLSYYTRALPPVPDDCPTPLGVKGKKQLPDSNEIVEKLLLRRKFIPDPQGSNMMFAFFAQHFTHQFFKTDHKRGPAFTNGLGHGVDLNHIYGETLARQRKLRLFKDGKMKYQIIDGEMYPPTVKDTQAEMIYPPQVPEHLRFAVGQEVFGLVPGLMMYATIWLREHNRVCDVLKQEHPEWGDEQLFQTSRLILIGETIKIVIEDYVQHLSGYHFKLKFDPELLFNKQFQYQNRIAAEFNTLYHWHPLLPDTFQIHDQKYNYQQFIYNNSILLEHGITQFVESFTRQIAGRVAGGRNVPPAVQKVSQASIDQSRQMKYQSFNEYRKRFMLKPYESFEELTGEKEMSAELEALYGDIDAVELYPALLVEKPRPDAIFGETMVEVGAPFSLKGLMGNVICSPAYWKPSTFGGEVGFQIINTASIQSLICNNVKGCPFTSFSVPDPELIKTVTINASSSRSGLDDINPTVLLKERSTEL
Description: fluorescent COX inhibitor assay (ADHP), recombinant hCOX-2 on hCOX-2

hCB1 = molecular target: T3, hCB1 (Homo sapiens, UniProt P21554); assay: [3H]CP55, […] displacement, CHO membranes; assay type: binding; conditions: read-out: CHO membranes / h CB 1
T3 construct: gene CNR1; full-length receptor in CHO cell membranes
T3 sequence (P21554 whole entry): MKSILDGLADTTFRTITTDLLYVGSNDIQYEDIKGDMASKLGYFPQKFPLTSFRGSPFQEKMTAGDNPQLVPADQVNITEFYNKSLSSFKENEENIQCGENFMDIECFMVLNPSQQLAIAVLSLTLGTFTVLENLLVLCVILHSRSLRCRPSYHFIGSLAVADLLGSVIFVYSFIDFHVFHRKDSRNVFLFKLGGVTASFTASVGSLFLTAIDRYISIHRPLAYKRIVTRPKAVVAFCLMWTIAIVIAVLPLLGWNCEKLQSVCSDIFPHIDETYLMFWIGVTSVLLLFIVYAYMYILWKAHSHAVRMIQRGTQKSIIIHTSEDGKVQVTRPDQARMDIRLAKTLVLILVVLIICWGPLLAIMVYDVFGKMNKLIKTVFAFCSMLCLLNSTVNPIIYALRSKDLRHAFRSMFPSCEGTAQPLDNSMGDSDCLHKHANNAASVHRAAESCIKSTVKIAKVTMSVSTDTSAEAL

hCB2 [4] = molecular target: T1, hCB2; assay: […]GTPγS binding, CHO-hCB2 membranes; assay type: biochemical; conditions: read-out: CHO membranes / h CB2 [ ^35 S] GTPγS
[5] = read-out: CHO membranes / h CB 2

T1 sequence (P34972 whole entry): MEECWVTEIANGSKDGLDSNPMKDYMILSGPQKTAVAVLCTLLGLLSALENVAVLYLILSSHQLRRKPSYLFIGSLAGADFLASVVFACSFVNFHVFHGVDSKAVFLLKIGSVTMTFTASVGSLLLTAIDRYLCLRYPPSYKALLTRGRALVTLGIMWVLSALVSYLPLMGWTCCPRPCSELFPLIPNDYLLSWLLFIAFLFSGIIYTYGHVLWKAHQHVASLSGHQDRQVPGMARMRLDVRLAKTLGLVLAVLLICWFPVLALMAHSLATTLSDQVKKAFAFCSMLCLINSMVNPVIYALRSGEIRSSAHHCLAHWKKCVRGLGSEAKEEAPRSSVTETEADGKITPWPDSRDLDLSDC

SMILES: CCCCC/C=C\C/C=C\C/C=C\C/C=C\CCCC(=O)OC(CO)CO [2-AG]
EC50 (hCB2 [1]; read-out: EC50): 74 nM

SMILES: C=CCc1ccc(O)c(-c2ccc(OC)c(CC=C)c2)c1 [MH, 4′-methoxy-5,3′-di-(2-propenyl)-biphenyl-2-ol]
IC50 (hCOX-2; substrate arachidonic acid 10 μM, heme, pH 8, 15 min pre-incubation, RT): 580 ± 80 nM

SMILES: CCC(C)c1ccc(O)c(-c2cc(C(C)CC)ccc2O)c1 (stereo not shown) [compound 32, 5,5′-di-sec-butyl-biphenyl-2,2′-diol]
Ki (hCB2 [3]): > 10000 nM
IC50 (hCOX-2): 10200 ± 120 nM

Other lines, results leading:

EC50 (hCB2 [1]; read-out: CHO membranes / h CB2 [ ^35 S] GTPγS): 180 ± 90 nM
IC50 (hCB2 [2]): 710 ± 90 nM
Ki (hCB2 [3]; [5]): 110 ± 90 nM
IC50 (hCOX-2): 1210 ± 80 nM
Ki (hCB1): 790 ± 100 nM
SMILES: C=CCc1ccc(OC)c(-c2ccc(O)c(CC=C)c2)c1 [27a, 2-methoxy-5,3′-di-(2-propenyl)-biphenyl-4′-ol]

Ki (hCB2 [3]; [5]): 350 ± 110 nM
IC50 (hCOX-2): 4310 ± 100 nM
IC50 (hCB2 [4]): 1820 ± 140 nM
Ki (hCB1): 1120 ± 150 nM
SMILES: C=CCc1ccc(OCCCC)c(-c2ccc(O)c(CC=C)c2)c1 [34a, 2-butyloxy-5,3′-di-(2-propenyl)-biphenyl-4′-ol]

Reference: PMC4490613 (Journal of Neuroinflammation, 2015)
